≈ marks a conversion by molar mass, not a printed value.
Legend:
[1] = test system: C. albicans (ATCC 90028); assay: Minimum inhibitory concentration, in vitro broth microdilution assay (CLSI M27-A2); type: cell-based, Candida albicans; settings: ATCC 90028, about 50% growth reduction, 2 days at 36° C., range tested 8-0.0078 μg/mL, values given as ranges; for MIC: Candida albicans, ATCC90028, 48 h, read-out: Candida albicans MIC
Procedure: The antifungal potency of the test compounds was measured using the in vitro broth microdilution assay under assay conditions described by the Clinical and Laboratory Standards Institute (CLSI M27-A2). The test compounds were dissolved in 100% DMSO, suspended completely by sonication or vortexing, diluted by 2-fold serial titrations in the same vehicle, for a total of 11 test concentrations. A 4 μL aliquot of each dilution was added to 196 μL of RPMI-1640+MOPS medium seeded with the C. albicans (ATCC 90028) suspension in wells of a 96 well plate (fungal cell count: 1×10^3 to 1×10^4 colony forming units per mL). The final volume was 200 μL in each well and the final DMSO concentration was 2 percent. The inoculated plates were incubated for 2 days at 36° C. Following incubation, the test plates were visually examined and wells were scored for growth to define the minimum inhibitory concentration. […] Each test substance was evaluated in duplicate. Vehicle-control and an active reference agent (e.g., posaconazole) were used as blank and positive controls, respectively.

[2] = test system: A. fumigatus; assay: A. fumigatus MIC at 100% growth inhibition (CLSI M38-A2); type: cell-based, Aspergillus fumigatus; settings: 100% growth inhibition, range tested 8-0.0078 μg/mL, values given as ranges; for MIC: Aspergillus fumigatus, read-out: Aspergillus fumigatus MIC
Procedure: A. fumigatus MICs were determined at 100% growth inhibition following CLSI guidelines at a concentration range of 8-0.0078 μg/mL (CLSI M38-A2).

Row | Structure (SMILES) | Candida albicans MIC [1] | Aspergillus fumigatus MIC [2] | MIC [1] | MIC [2]
1 | OC(c1ccc(N2CCN(c3ccc(-c4ccc(C(F)(F)[C@](O)(Cn5cnnn5)c5ccc(F)cc5F)nc4)cc3)CC2)cn1)C(F)(F)F (single isomer, unassigned) [Example 6-Fr-II] | ≤0.0078 to 0.010 µg/mL | 0.25 to 1.0 µg/mL | – | –
2 | OC(c1ccc(N2CCN(c3ccc(-c4ccc(C(F)(F)[C@](O)(Cn5cnnn5)c5ccc(F)cc5F)nc4)cc3)CC2)cn1)C(F)(F)F (single isomer, unassigned) [Example 6-Fr-I] | – | – | 0.01 to 0.1 µg/mL (≈ 0.0145 to 0.145 µM) | 0.25 to 1 µg/mL (≈ 0.363 to 1.45 µM)
3 | OC(CC(F)(F)F)c1ccc(N2CCN(c3ccc(-c4ccc(C(F)(F)[C@](O)(Cn5cnnn5)c5ccc(F)cc5F)nc4)cc3)CC2)cn1 (single isomer, unassigned) [Example 13-Fr-I] | ≤0.0078 to 0.010 µg/mL | 0.062 to 0.25 µg/mL | – | –
4 | OC(c1cn(-c2ccc(N3CCN(c4ccc(-c5ccc(C(F)(F)C(O)(Cn6cnnn6)c6ccccc6F)nc5)cc4)CC3)cc2)nn1)C(F)(F)F (single isomer, unassigned; (+)) [108(+), (+)-1,1-difluoro-2-(2-fluorophenyl)-3-(1H-tetrazol-1-yl)-1-(5-(4-(4-(4-(4-(2,2,2-trifluoro-1-hydroxyethyl)-1H-1,2,3-triazol-1-yl)phenyl)piperazin-1-yl)phenyl)pyridin-2-yl) propan-2-ol] | ≤0.0078 to 0.010 µg/mL | 0.25 to 1.0 µg/mL | – | –
5 | OC(c1cn(-c2ccc(N3CCN(c4ccc(-c5ccc(C(F)(F)C(O)(Cn6cnnn6)c6ccccc6F)nc5)cc4)CC3)cn2)nn1)C(F)(F)F (single isomer, unassigned; (+)) [110(+), (+)-1,1-difluoro-2-(2-fluorophenyl)-3-(1H-tetrazol-1-yl)-1-(5-(4-(4-(6-(4-(2,2,2-trifluoro-1-hydroxyethyl)-1H-1,2,3-triazol-1-yl)pyridin-3-yl)piperazin-1-yl)phenyl)pyridin-2-yl) propan-2-ol] | ≤0.0078 to 0.010 µg/mL | 0.25 to 1.0 µg/mL | – | –
6 | OC(CC(F)(F)F)c1ccc(N2CCN(c3ccc(-c4ccc(C(F)(F)[C@](O)(Cn5cncn5)c5ccc(F)cc5F)nc4)cc3)CC2)cn1 (single isomer, unassigned; (+)) [120(+)] | ≤0.0078 to 0.010 µg/mL | 0.062 to 0.25 µg/mL | – | –
7 | OC(CC(F)(F)F)c1ccc(N2CCN(c3ccc(-c4ccc(C(F)(F)[C@](O)(Cn5cnnn5)c5ccc(F)cc5)nc4)cc3)CC2)cn1 (single isomer, unassigned; (+)) [121(+)] | ≤0.0078 to 0.010 µg/mL | 0.25 to 1.0 µg/mL | – | –
8 | OC(CC(F)(F)F)c1ccc(N2CCN(c3ccc(-c4ccc(C(F)(F)[C@](O)(Cn5cnnn5)c5ccccc5F)nc4)cc3)CC2)cn1 (single isomer, unassigned; (+)) [122(+)] | ≤0.0078 to 0.010 µg/mL | 0.25 to 1.0 µg/mL | – | –
9 | CC[C@@H]([C@H](C)O)n1ncn(-c2ccc(N3CCN(c4ccc(-c5ccc(C(F)(F)C(O)(Cn6cncn6)c6ccc(F)cc6F)nc5)cc4)CC3)cc2)c1=O (single isomer, unassigned; (+)) [123(+)] | 0.010 to 0.10 µg/mL | 0.062 to 0.25 µg/mL | – | –
10 | OC(c1cn(-c2ccc(N3CCN(c4ccc(-c5ccc(C(F)(F)C(O)(Cn6cnnn6)c6ccccc6F)nc5)cc4)CC3)cc2)nn1)C(F)(F)F (single isomer, unassigned; (-)) [108(−)] | >8 µg/mL | >8 µg/mL | – | –
11 | OC(c1cn(-c2ccc(N3CCN(c4ccc(-c5ccc(C(F)(F)C(O)(Cn6cnnn6)c6ccccc6F)nc5)cc4)CC3)cn2)nn1)C(F)(F)F (single isomer, unassigned; (-)) [110(−), (−)-1,1-difluoro-2-(2-fluorophenyl)-3-(1H-tetrazol-1-yl)-1-(5-(4-(4-(6-(4-(2,2,2-trifluoro-1-hydroxyethyl)-1H-1,2,3-triazol-1-yl)pyridin-3-1)piperazin-1-yl)phenyl)pyridin-2-yl) propan-2-ol] | >8 µg/mL | >8 µg/mL | – | –
12 | OC(CC(F)(F)F)c1ccc(N2CCN(c3ccc(-c4ccc(C(F)(F)[C@](O)(Cn5cnnn5)c5cccc(F)c5)nc4)cc3)CC2)cn1 (single isomer, unassigned; (-)) [119(−)] | – | – | 0.1 to 1 µg/mL (≈ 0.146 to 1.46 µM) | > 8 µg/mL
13 | OC(CC(F)(F)F)c1ccc(N2CCN(c3ccc(-c4ccc(C(F)(F)[C@](O)(Cn5cncn5)c5ccc(F)cc5F)nc4)cc3)CC2)cn1 (single isomer, unassigned; (-)) [120(−)] | – | 0.25 to 1.0 µg/mL | 0.01 to 0.1 µg/mL (≈ 0.0143 to 0.143 µM) | –
14 | OC(CC(F)(F)F)c1ccc(N2CCN(c3ccc(-c4ccc(C(F)(F)[C@](O)(Cn5cnnn5)c5ccc(F)cc5)nc4)cc3)CC2)cn1 (single isomer, unassigned; (-)) [121(−)] | 0.10 to 1.0 µg/mL | >8 µg/mL | – | –
15 | OC(CC(F)(F)F)c1ccc(N2CCN(c3ccc(-c4ccc(C(F)(F)[C@](O)(Cn5cnnn5)c5ccccc5F)nc4)cc3)CC2)cn1 (single isomer, unassigned; (-)) [122(−)] | 1.0 to 8.0 µg/mL | >8 µg/mL | – | –
16 | CC[C@@H]([C@H](C)O)n1ncn(-c2ccc(N3CCN(c4ccc(-c5ccc(C(F)(F)C(O)(Cn6cncn6)c6ccc(F)cc6F)nc5)cc4)CC3)cc2)c1=O (single isomer, unassigned; (-)) [123(−)] | – | 0.25 to 1.0 µg/mL | 0.01 to 0.1 µg/mL (≈ 0.0132 to 0.132 µM) | –
17 | OC(c1ccc(N2CCN(c3ccc(-c4ccc(C(F)(F)C(O)(Cn5cnnn5)c5cc(F)ccc5F)nc4)cc3)CC2)cc1)C(F)(F)F (stereo not drawn) [15(+)] | ≤0.0078 to 0.010 µg/mL | 0.25 to 1.0 µg/mL | – | –
18 | OC(c1ccc(N2CCN(c3ccc(-c4ccc(C(F)(F)C(O)(Cn5cnnn5)c5cc(F)ccc5F)nc4)cc3)CC2)cc1)C(F)(F)F (stereo not drawn) [15(−), 2-(2,5-difluorophenyl)-1,1-difluoro-3-(1H-tetrazol-1-yl)-1-(5-(4-(4-(4-(2,2,2-trifluoro-1-hydroxyethyl)phenyl)piperazin-1-yl)phenyl)pyridin-2-yl) propan-2-ol] | 0.10 to 1.0 µg/mL | >8 µg/mL | – | –
19 | CC[C@@H]([C@H](C)O)n1ncn(-c2ccc(N3CCN(c4ccc(-c5ccc(C(F)(F)[C@](O)(Cn6cnnn6)c6ccccc6F)nc5)cc4)CC3)cn2)c1=O [102(+), 4-(5-(4-(4-(6-((R)-1,1-difluoro-2-(2-fluorophenyl)-2-hydroxy-3-(1H-tetrazol-1-yl)propyl)pyridin-3-yl)phenyl)piperazin-1-yl)pyridin-2-yl)-2-((2S,3S)-2-hydroxypentan-3-yl)-2,4-dihydro-3H-1,2,4-triazol-3-one] | ≤0.0078 to 0.010 µg/mL | 0.25 to 1.0 µg/mL | – | –
20 | CC[C@@H]([C@H](C)O)n1ncn(-c2ccc(N3CCN(c4ccc(-c5ccc(C(F)(F)[C@](O)(Cn6cnnn6)c6ccccc6F)nc5)cc4)CC3)cn2)c1=O [102(−), 4-(5-(4-(4-(6-((R)-1,1-difluoro-2-(2-fluorophenyl)-2-hydroxy-3-(1H-tetrazol-1-yl)propyl)pyridin-3-yl)phenyl)piperazin-1-yl)pyridin-2-yl)-2-((2S,3S)-2-hydroxypentan-3-yl)-2,4-dihydro-3H-1,2,4-triazol-3-one] | 0.10 to 1.0 µg/mL | >8 µg/mL | – | –
21 | CC[C@@H]([C@H](C)O)n1ncn(-c2ccc(N3CCN(c4ccc(-c5ccc(C(F)(F)[C@](O)(Cn6cnnn6)c6ccc(F)cc6)nc5)cc4)CC3)cn2)c1=O [109(+), (+)-4-(5-(4-(4-(6-((R)-1,1-difluoro-2-(4-fluorophenyl)-2-hydroxy-3-(1H-tetrazol-1-yl)propyl)pyridin-3-yl)phenyl)piperazin-1-yl)pyridin-2-yl)-2-((2S,3S)-2-hydroxypentan-3-yl)-2,4-dihydro-3H-1,2,4-triazol-3-one] | ≤0.0078 to 0.010 µg/mL | 0.25 to 1.0 µg/mL | – | –
22 | CC[C@@H]([C@H](C)O)n1ncn(-c2ccc(N3CCN(c4ccc(-c5ccc(C(F)(F)[C@](O)(Cn6cnnn6)c6ccc(F)cc6)nc5)cc4)CC3)cn2)c1=O [109(−), (−)-4-(5-(4-(4-(6-((R)-1,1-difluoro-2-(4-fluorophenyl)-2-hydroxy-3-(1H-tetrazol-1-yl)propyl)pyridin-3-yl)phenyl)piperazin-1-yl)pyridin-2-yl)-2-((2S,3S)-2-hydroxypentan-3-yl)-2,4-dihydro-3H-1,2,4-triazol-3-one] | 0.10 to 1.0 µg/mL | 1.0 to 4.0 µg/mL | – | –
23 | N#Cc1ccc(N2CCN(c3ccc(-c4ccc(C(F)(F)[C@](O)(Cn5cnnn5)c5ccc(F)cc5F)nc4)cc3)CC2)cc1 [Example 1, (R)-4-(4-(4-(6-(2-(2,4-difluorophenyl)-1,1-difluoro-2-hydroxy-3-(1H-tetrazol-1-yl)propyl)pyridin-3-yl)phenyl)piperazin-1-yl) benzonitrile] | – | – | 0.0078 to 0.01 µg/mL (≈ 0.0127 to 0.0163 µM) | 0.25 to 1 µg/mL (≈ 0.407 to 1.63 µM)

Source: patent publication US10464922B2, “Metalloenzyme inhibitor compounds” (NQP 1598 LTD., priority 2015, dated 2019)
